{"source": "patent US8841284B2", "about": "“Compound having neurite-outgrowing activity” (Lead Chemical Co., Ltd, priority 2009, dated 2014)", "molecules": {"B1": {"name": "NGF: mNGF2. 5S (alomone labs, PRODUCT#N-100), used as mNGF-added medium (protein, UniProt P01139 122-241, looked up)", "Beta-nerve growth factor": "SSTHPVFHMGEFSVCDSVSVWVGDKTTATDIKGKEVTVLAEVNINNSVFRQYFFETKCRASNPVESGCRGIDSKHWNSYCTTTHTFVKALTTDEKQAAWRFIRIDTACVCVLSRKATRRG", "modifications": "Beta-nerve growth factor", "notes": "mNGF2; 5S (alomone labs, PRODUCT#N-100), used as mNGF-added medium"}}, "key": {"[1]": {"test_system": "rat fetus (viviparity 17 days) cerebral cortex neuron", "test": "Neurite-outgrowing activity, rat fetus cerebral cortex neuron, poly-L-lysine-coated culture vessel", "type": "cell-based", "details": "for Neurite Density / Neurite Length / Neurite Thickness: relative amount, basal medium = 1", "description": "Rat fetus (viviparity 17 days) cerebral cortex neuron (Sumitomo Bakelite Co., Ltd.)\nFrom a frozen cerebral tissue, using an attached protocol and attached reagents, a cerebral cortex neuron was prepared, was cultured in an NSF-1 (neurotrophic factor; name of substance or the like is not disclosed)-added PNBM medium for 2 hours, and then in a PNBM medium containing the sample (the compound produced in Example 1).\nThe dissemination was performed with a neuron concentration of 2×10^5 cells/0.5 mL/well (24-well-plate).\n(§1) The sample (the compound produced in Example 1) was dissolved in DMSO to prepare a 10 mM solution. The 10 mM solution was diluted with DMSO to prepare a 1 mM solution. Further dilution of the solution was performed with a PNBM medium.\n(§2) Finally, sample-added media of 0.2 μM concentration and 1 μM concentration were prepared. With respect to the mNGF medium, a 5 ng/mL mNGF-added medium and a 25 ng/mL mNGF-added medium were prepared.\nCulture in Poly-L-Lysine-Coated Culture Vessel\n(§3) On the third day of the culture, the culture medium was exchanged. Photographs of a neuron on the fifth day of the culture are shown in the drawings (a photograph of a neuron on the fifth day of the culture in the basal medium (additive-free) is shown in FIG. 4; a photograph of a neuron on the fifth day of the culture in the neurotrophic factor (NSF-1)-added medium is shown in FIG. 5; and a photograph of a neuron on the fifth day of the culture in the sample-added medium (1 μM concentration) is shown in FIG. 6). Here, the number in Table 1 indicates a relative amount when the value in the basal medium (additive-free) is assumed to be 1."}, "[2]": {"test_system": "rat spinal cord dorsal root ganglion neuron", "test": "Neurite (axon)-outgrowing activity, rat spinal cord dorsal root ganglion neuron, laminin-coated culture vessel", "type": "cell-based", "details": "fifth day of culture; for Neurite (axon) Density / Neurite (axon) Length / Neurite (axon) Thickness: relative amount, basal medium = 1", "description": "Rat spinal cord dorsal root ganglion (Takara Bio Inc.)\nLaminin-coated: a well was coated with a culture supernatant containing laminin 5B to be used.\nA spinal cord neuron in a frozen state was thawed according to the attached protocol and the neuron was cultured in an NSF-1-added PNBM medium for 2 hours and then in a PNBM medium containing the sample (the compound produced in Example 1).\nThe dissemination was performed with a spinal cord neuron concentration of 2.5×10^4 cells/0.1 mL/well (96-well-plate).\nas §1, §2\nCulture in Laminin-Coated Culture Vessel\nA spinal cord neuron can easily outgrow a neurite (axon) and outgrows a neurite even in an additive-free medium.\nas §3, with “FIG. 10;” for “FIG. 4;”, “FIG. 11;” for “FIG. 5;”, “FIG. 12).” for “FIG. 6).”, “Table 2” for “Table 1”"}, "[3]": {"test_system": "rat spinal cord dorsal root ganglion neuron", "test": "Neurite (axon)-outgrowing activity, rat spinal cord dorsal root ganglion neuron, laminin-coated culture vessel", "type": "cell-based", "details": "1 μM; second day of culture; FIG. 9"}}}
{"molecule": "C[C@@H]([C@H]1CC[C@H]2[C@@H]3CCc4cc(O)ccc4[C@H]3CC[C@]12C)[C@H]1CC=C(CO)C(=O)O1", "note": "[Example 1, 6-[1-(3-hydroxy-13-methyl-7,8,9,11,12,13,14,15,16,17-decahydro-6H-cyclopenta[a]phenanthren-17-yl)-ethyl]-3-hydroxymethyl-5,6-dihydropyran-2-one]", "values": [{"measurement": "Neurite Density", "setting": "[1]; 0.2 μM, fifth day of culture", "value": 1}, {"measurement": "Neurite Length", "setting": "[1]; 0.2 μM, fifth day of culture", "value": 1}, {"measurement": "Neurite Thickness", "setting": "[1]; 0.2 μM, fifth day of culture", "value": 1}, {"measurement": "neurite-outgrowing activity (in words)", "setting": "[1]; 1 μM, fifth day of culture", "value": "has a neurite-outgrowing activity"}, {"measurement": "Neurite Density", "setting": "[1]; 1 μM, fifth day of culture", "value": 1.5}, {"measurement": "Neurite Length", "setting": "[1]; 1 μM, fifth day of culture", "value": 2}, {"measurement": "Neurite Thickness", "setting": "[1]; 1 μM, fifth day of culture", "value": 2}, {"measurement": "number of neurites (in words)", "setting": "[1]; 1 μM, second day of culture, FIG. 3", "value": "the number of neurites increased more than in the basal medium (additive-free), but less than in the neurotrophic factor (NSF-1)-added medium"}, {"measurement": "Neurite (axon) Density", "setting": "[2]; 0.2 μM", "value": 2}, {"measurement": "Neurite (axon) Length", "setting": "[2]; 0.2 μM", "value": 2}, {"measurement": "Neurite (axon) Thickness", "setting": "[2]; 0.2 μM", "value": 1}, {"measurement": "axon length and thickness (in words)", "setting": "[2]; 1 μM", "value": "the axon outgrew longer but did not become thicker"}, {"measurement": "Neurite (axon) Density", "setting": "[2]; 1 μM", "value": 2}, {"measurement": "Neurite (axon) Length", "setting": "[2]; 1 μM", "value": 2.5}, {"measurement": "Neurite (axon) Thickness", "setting": "[2]; 1 μM", "value": 1}, {"measurement": "melting point", "value": "248 to 250", "unit": "°C"}, {"measurement": "axon outgrowth (in words)", "setting": "[3]", "value": "the axon outgrew more than in the basal medium (additive-free), but less than in the neurotrophic factor (NSF-1)-added medium"}]}
{"molecule": "B1", "values": [{"measurement": "Neurite Density", "setting": "[1]; 5 ng/mL, fifth day of culture", "value": 2}, {"measurement": "Neurite Length", "setting": "[1]; 5 ng/mL, fifth day of culture", "value": 2}, {"measurement": "Neurite Thickness", "setting": "[1]; 5 ng/mL, fifth day of culture", "value": 2}, {"measurement": "Neurite Density", "setting": "[1]; 25 ng/mL, fifth day of culture", "value": 2.5}, {"measurement": "Neurite Length", "setting": "[1]; 25 ng/mL, fifth day of culture", "value": 2}, {"measurement": "Neurite Thickness", "setting": "[1]; 25 ng/mL, fifth day of culture", "value": 2}, {"measurement": "Neurite (axon) Density", "setting": "[2]; 5 ng/mL", "value": 2}, {"measurement": "Neurite (axon) Length", "setting": "[2]; 5 ng/mL", "value": 2}, {"measurement": "Neurite (axon) Thickness", "setting": "[2]; 5 ng/mL", "value": 1}, {"measurement": "Neurite (axon) Density", "setting": "[2]; 25 ng/mL", "value": 2}, {"measurement": "Neurite (axon) Length", "setting": "[2]; 25 ng/mL", "value": 3}, {"measurement": "Neurite (axon) Thickness", "setting": "[2]; 25 ng/mL", "value": 2}]}
